Assay results taken from patent publication US8058258B2, “Methods for cancer therapy and stem cell modulation” (Agency for Science, Technology and Research, priority 2006, dated 2011).

Columns and labels:
[1] = tested on: caspase 9, and poly(ADP-ribose) polymerase (PARP); experiment: Western blot of caspase and PARP cleavage; format: cell-based; conditions: 3-deazaneplanocin-treated cells (MCF-7, HCT116; 5 μM, 48 and 72 h)
Method: FIG. 3E depicts a Western blot analysis of the activation of caspases. MCF-7 and HCT16 cells were treated with 5 μM 3-deazaneplanocin (“DZNep”) for 48 and 72 h before analysis of whole-cell extracts. Activation of caspases and poly(ADP-ribose) polymerase (“PARP”) was detected after 3-deazaneplanocin treatment. β-Actin (“Actin”) was used as a loading control.
Cell pellets were first lysed in RadioImmuno Precipitation Assay (RIPA) buffer, consisting of an aqueous solution of 25 mM Tris-HCl pH 7.6, 150 mM NaCl, 1% Nonidet-P 40 (NP-40), 1% sodium deoxycholate and 0.1% sodium dodecylsulfate (SDS), before further sonicated using a tissue homogeniser to release all the proteins. Equal amounts of protein were separated on SDS-polyacrylamide gels and transferred to polyvinylidene difluoride (PVDF) membranes. The blots were probed with antibodies against: EED (07-368), SUZ12 (07-379), SUV39H1 (07-550), BMI1 (05-637), tri-methylated H3-K27 (07-449), tri-methylated H3-K9 (07-442) and Acetyl-Histone H3 (06-599), and were purchased from Upstate. EZH2 (AC22) and Histone H3 (3H1) were from Cell Signaling. Antibodies against DNA methyl-transferases DNMT1 and DNMT3B were purchased from Alexis Biochemicals. […]

MCF-7 and HCT116 cells = experiment: Mitochondrial membrane potential by JC-1 staining and flow cytometry; format: cell-based; conditions: JC-1, flow cytometry
From the text: FIG. 3B depicts the detection of mitochondrial membrane potential of HCT116 cells by staining with the dye 5,5′,6,6′-tetrachloro-1,1′,3,3′-tetraethyl-benzamidazolocarbocyanin iodide (JC-1).
FIG. 3C compares the apoptosis in HCT116 cells (right hand side, data of FIG. 3B) to the apoptosis in MCF-7 cells (left hand side).
(§1) Cells were trypsinised and washed with PBS and fixed in 70% ethanol and processed for propidium iodide staining and FACS analysis. For the caspase 3 activity assay and mitochondrial membrane potential detection, cells were stained with anti-active caspase 3 and JC-1, respectively, according to the manufacturer's instructions (BD Bioscience).
To elucidate the mechanisms by which 3-deazaneplanocin induces cell death, flow cytometry was used to analyse the loss of mitochondrial membrane potential (ΔΨm) in MCF-7 and HCT116 cells after 3-deazaneplanocin treatment (FIGS. 3B & 3C).

histone acetylation = experiment: Western blot of histone acetylation; format: cell-based, human; conditions: HCT116 or MCF-7 cells, 5 μM, 48 and 72 hours
Method: Cell lines used in these examples were purchased from the American Type Culture Collection (Manassas, Va.). Cells were maintained in DMEM supplemented with 10% fetal bovine serum with glutamine, penicillin, and streptomycin. For drug treatment, cells were seeded the day before the drug treatment. Cells were treated with 5 μM 3-Deazaneplanocin A or 2 μM 5-aza-2'-deoxycytidine (5-AzaC; Sigma) for 72 hours and trichostatin A (TSA; Sigma) at 100 nM for 24 hours. For co-treatment of cells with 5-AzaC and TSA, 5-Aza was added for 48 hours and followed by TSA for 24 hours. Cell pellets were first lysed in RadioImmuno Precipitation Assay (RIPA) buffer, consisting of an aqueous solution of 25 mM Tris-HCl pH 7.6, 150 mM NaCl, 1% Nonidet-P 40 (NP-40), 1% sodium deoxycholate and 0.1% sodium dodecylsulfate (SDS), before further sonicated using a tissue homogeniser to release all the proteins. Equal amounts of protein were separated on SDS-polyacrylamide gels and transferred to polyvinylidene difluoride (PVDF) membranes. The blots were probed with antibodies against: EED (07-368), SUZ12 (07-379), SUV39H1 (07-550), BMI1 (05-637), tri-methylated H3-K27 (07-449), tri-methylated H3-K9 (07-442) and Acetyl-Histone H3 (06-599), and were purchased from Upstate. EZH2 (AC22) and Histone H3 (3H1) were from Cell Signaling. […]

MB-468 cells = experiment: Cell death / apoptosis by PI staining and flow cytometry; format: cell-based, human
Method: FIG. 3A depicts the detection of cell death of a variety of cancer cells upon exposure to 3-deazaneplanocin (DZNep) compared to untreated controls cells (DMSO=dimethyl sulfoxide). Breast cancer MCF-7 and MB-468 cells, colorectal HCT116, RKO and SW480 cells were treated with 5 μm 3-deazaneplanocin for 48 and 72 h, and cell death was detected by means of propodium iodide (PI) staining and flow cytometry analysis. Shown is the average of three independent experiments.
(§2) FIG. 6A depicts an analysis of the breast cancer cell lines MCF-7, MB-468, SK-BR-3, MB-231, T47D and BT549 for an apoptotic effect of 5 μM 3-deazaneplanocin over a time frame of 120 hours. Cell death was measured by FACS analysis. Data presented are the average of three independent experiments.
Cell lines used in these examples were purchased from the American Type Culture Collection (Manassas, Va.). Cells were maintained in DMEM supplemented with 10% fetal bovine serum with glutamine, penicillin, and streptomycin. For drug treatment, cells were seeded the day before the drug treatment. […]
It was observed that 3-deazaneplanocin at 5 μM could induce 25% cell death at 48 hours and 45% of cell death at 72 hours, as determined by propodium iodide (PI) staining and flow cytometry analysis (FIG. 3A). […]

BT-549 cells = experiment: Apoptotic response time course by FACS analysis; format: cell-based; conditions: BT-549, 5 μM, time course to 120 hours
Method: as §2, §1
(§3) To extend the observation seen in MCF-7 cells, additional breast cancer cell lines were screened, including MB-468, SK-BR-3, MB-231, T47D and BT549. […] To identify the PRC2 target genes associated with the cellular sensitivity to 3-deazaneplanocin, the array analysis was performed in these breast cancer cell lines before and after 3-deazaneplanocin treatment and the expression of the 47 identified PRC2 targets profiled. It was reasoned that some the PRC2 target genes might be differentially expressed between the sensitive and resistant cell lines, which might confer the distinct sensitivity to 3-deazaneplanocin. […] Both the real time and conventional RT-PCR analysis of the 4 gene set confirmed the array data (FIGS. 6D & 6E). […]

MB-231 cells = experiment: Apoptotic response time course by FACS analysis; format: cell-based; conditions: MB-231, 5 μM, time course to 120 hours
Method: as §2, §1, §3

## Nc1nccc2c1ncn2C1C=C(CO)C(O)C1O (stereo not shown) [3-deazaneplanocin, 5-(4-amino-1H-imidazo[4,5-c]pyridin-1-yl)-3-(hydroxymethyl)-3-cyclopentene-1,2-diol]
[1]
  cleavage of caspase 9, and poly(ADP-ribose) polymerase (PARP): easily detectable
MCF-7 and HCT116 cells
  loss of mitochondrial membrane potential (ΔΨm): marked increase in the percentage of cells with lower ΔΨm
Histone acetylation
  histone acetylation: did not affect
MB-468 cells; MB-468, 5 μM, time course to 120 hours
  sensitivity to 3-deazaneplanocin-induced cell death: highly susceptible
MB-468 cells; breast cancer MB-468 cells, 5 μM
  cell death: obvious cell death
BT-549 cells
  sensitivity to 3-deazaneplanocin-induced cell death: highly resistant
MB-231 cells
  sensitivity to 3-deazaneplanocin-induced cell death: highly resistant
